For data set [1] the following is noted: literature; cited from earlier work.
The nature of data set [2]: Formation and structure of cubic liquid crystals by polarizing microscopy (penetration method) and SAXS. It counts as physicochemical. Particulars: for lattice constant: 84.2% by mass; for liquid crystal phase formed: mixed with water, polarizing microscopy and/or SAXS. An excerpt:
Whether or not the amphiphilic lipid/water system forms cubic liquid crystals and whether or not such composition is type I or II can be easily determined by the penetration method. A small amount (several mg) of amphiphilic lipids is placed on a glass slide for a microscope, and slight pressure is applied with a glass cover to form a thin layer of amphiphilic lipids (diameter: about 1 to 5 mm) with a thickness of about 10 μm in the gap between the glass slide and the glass cover. Upon addition of water or an aqueous medium from a side of the gap between the glass slide and the glass cover by capillary action, water gradually invades the amphiphilic lipid thin layer from the exterior edge, and a water content gradient is formed from the amphiphilic lipid thin layer/water interface toward the inside of the amphiphilic lipid thin layer. Polarizing microscopic observation thereof enables the determination of a phase type formed depending on the concentration of the amphiphilic lipid/water system. […] In FIG. 2, 4 regions are observed. The rightmost region in the photograph indicates a water region, and the other regions indicate hydrous amphiphilic lipid regions. In the photograph, the rightmost regions indicates the highest water content and the leftmost region indicates a region of amphiphilic lipids that has not yet been penetrated by water. […] Since cubic liquid crystals are stably formed at the interface of excess water and the amphiphilic lipid portion, such crystals are found to be of type II.
To this end, whether or not the liquid crystal structure has cubic lattices may be investigated by the small-angle x-ray scattering (SAXS) assay. In this process, a sample of an amphiphilic lipid/water system at a given concentration may be introduced into a quartz X-ray capillary tube, the capillary may be sealed with an oxygen burner, and the resultant may be subjected to the SAXS assay.
The cubic liquid crystal composition of the present invention is not particularly limited. […] Thus, spaces and lattice constants can be easily determined. The peak values of small angle X-ray scattering or the cubic lattice size of cubic liquid crystals in the presence of an excess aqueous solvent are at constant levels regardless of the lipid concentration. The coexistence state of cubic liquid crystals and an excess aqueous medium can be confirmed by the SAXS assay. Thus, whether or not the cubic liquid crystals are of type II can be easily determined.
In equations, nL and nW are actually measurable, and ac can be measured by the SAXS experiment. Thus, the dhc value can be determined based on equations (ii) and (iii). […] Based on such comparison, whether or not the cubic liquid crystal structure is of a bicontinuous type can be determined.
Mono-O-(3,7,11,15-tetramethylhexadecyl)pentaerythritol (hereafter referred to as “mono-O-(phytanyl)pentaerythritol,” formula (5) above) and pure water were introduced into a mixing device, and incubation was carried out while performing 100 or more times of mixing operations at room temperature (23° C.) over the period of 48 hours. Thus, a homogeneously mixed sample of mono-O-(phytanyl)pentaerythritol/water system was obtained. This sample of mono-O-(phytanyl)pentaerythritol/water system appeared to be a transparent gel composition.
Subsequently, the thus obtained sample of mono-O-(phytanyl)pentaerythritol/water system (the concentration of the amphiphilic compound: 74.6% by mass) was observed by polarizing microscopy. In entire region of the lipid portions, optically isotropic textures peculiar to the cubic liquid crystals were observed (FIG. 3). In FIG. 3, the right region indicates water and the left region indicates the sample of mono-O-(phytanyl)pentaerythritol/water system. […] Such observation indicates the formation of cubic liquid crystals.
Subsequently, the sample of mono-O-(phytanyl)pentaerythritol/water system was confirmed to be a cubic liquid crystal by small-angle x-ray scattering (SAXS). […]

Data set [3] can be described thus: Krafft temperature (TK) by DSC of amphiphilic compound/water system. It is filed as physicochemical. To be noted: for TK (Krafft temperature): compound/water system; for Krafft temperature (° C.): amphiphilic compound alone. How it is done: Liquid crystals such as cubic liquid crystals formed by amphiphilic lipids are formed only at the Krafft temperature (TK), as determined depending on types and concentrations of amphiphilic lipids, or higher. Furthermore, liquid crystals generally undergo a phase transition upon changes in the concentration of the amphiphilic lipid or temperature. Accordingly, the maximal temperature (Tmax) at which a given liquid crystal structure can be stably present is also determined depending on lipid type and concentration of amphiphilic lipid. Thus, a liquid crystal structure formed by a given type of amphiphilic lipid is stably formed in the temperature range between TK and Tmax. The correlation between TK-Tmax and the concentration of the amphiphilic lipid is generally indicated as a “concentration-temperature dependent phase diagram” of the amphiphilic lipid/water system. The Krafft temperature of the amphiphilic lipid can be determined by a method known in the art, such as a method involving the preparation of such a phase diagram (e.g., Laughlin, R. G., “The Aqueous Phase Behavior of Surfactants,” 1994, Academic Press London, pp. 106-117). The Krafft temperature of a mixture of two or more amphiphilic lipids can be determined by the same method.
In the cubic liquid crystal composition of the present invention, stable bicontinuous type II cubic liquid crystals are formed at low temperatures, such as lower than 6° C. In the liquid crystal composition of the present invention, stable bicontinuous type II cubic liquid crystals are typically formed between −10° C. (or at the freezing temperature of the aqueous medium used or higher) and 80° C., and preferably between 0° C. and 50° C. The Krafft temperature of the amphiphilic lipid can be easily determined by, for example, DSC assay of an aqueous solution containing 1% to 85% by mass of amphiphilic lipid or by observing the melting behavior of the amphiphilic lipid under a (polarizing) microscope. More precisely, such temperature may be determined in accordance with a conventional technique involving the preparation of a phase diagram (e.g., Laughlin, R. G., “The Aqueous Phase Behavior of Surfactants,” 1994, Academic Press, London, pp. 106-117).
The Krafft temperatures of these amphiphilic compounds and mixtures thereof determined by the analyses described below are shown in Table 2-1 and Table 2-2.
Subsequently, the sample of mono-O-(phytanyl)pentaerythritol/water system was subjected to differential scanning calorimetry (DSC) in a temperature range between −45° C. and 70° C. DSC analysis employed the Seiko SSC/560U differential scanning calorimeter (Seiko Instruments Inc.). The sample of mono-O-(phytanyl)pentaerythritol/water system (72.4% by mass) prepared by the above method was sealed in a DSC cell, and the sample was incubated while cooling at −45° C. for 3 hours to thoroughly form a hydrated solid of mono-O-(phytanyl)pentaerythritol (hereafter abbreviated as “hydrated solid”). Subsequently, this hydrated solid was heated at a rate of temperature increase of 0.5° C./minute and a melting behavior of the hydrated solid was inspected by DSC analysis. As a result, an endothermic peak resulting from melting of the hydrated solid that begins at around −40° C. and ends at around −27° C. and an endothermic peak resulting from ice melting observed between −10° C. and 1° C. were observed, as shown in FIG. 4. In FIG. 4, the left peak is the endothermic peak resulting from melting of the hydrated solid and the right peak is the endothermic peak resulting from ice melting. Although analysis was conducted up to 70° C., other thermal transition was not observed. Substantially the same results were obtained at other concentrations. Thus, the TK of mono-O-(phytanyl)pentaerythritol was concluded to be 0° C. or lower.

Where [4] appears, read: lipid alone, total amphiphilic compound content 60% by mass (excess water).

Some results are limits rather than exact numbers.

Regarding `CCCCCCCCCCCCCCCCCC(=O)OCC(O)CO` (centres unmarked) [monooctadecanoin], the Krafft temperature in data set [1] is 80 °C.

Consider `CC(C)CCCC(C)CCCC(C)CCCC(C)(O)C(O)CO` (centres unmarked) [phytantriol, 3,7,11,15-tetramethylhexadecyl-1,2,3-triol], for which the “Temperature at which cubic liquid crystals are transformed into inverted hexagonal liquid crystals” value in data set [1] is ≥ 40 °C.

As for monopentadecenoin, in data set [1], the Krafft temperature was 30 °C.

For `CC(C)CCCC(C)CCCC(C)CCCC(C)CCOC1OC[C@@H](O)C(O)C1O` (some centres unmarked) [formula (13), reference compound], the “maximal temperature at which the cubic liquid crystal structure is formed” value in data set [2] came to 75 °C. Further, in data set [2] (setting [4]), the “diameter of the water channel of the cubic liquid crystals” value turned out to be 3.8 nm and the “lattice constant of the cubic liquid crystals” value turned out to be 9.2 nm. Also, the “TK (Krafft temperature)” value in data set [3] (listed as β-XP) was “about 10 °C”. The Krafft temperature in data set [1] is 10 °C.

`CCCCCCCC/C=C\CCCCCCCC(=O)OCC(O)CO` (centres unmarked) [monoolein]: the Krafft temperature in data set [1] is 15 °C.

`CCCCCC/C=C\CCCCCCCCCC(=O)OC[C@H](O)CO` [monovaccenin]: in data set [1], the Krafft temperature is 15 °C.

For the compound `CCCC/C=C\CCCCCCCC(=O)OCC(O)CO` (centres unmarked) [monomyristolein], the Krafft temperature in data set [1] was 35 °C.

In the case of `CC(C)CCCC(C)CCCC(C)CCCC(C)CCOC1OC[C@@H](O)C(O)C1O` (some centres unmarked) [formula (11)], the lattice constant came out at 9.8 nm in data set [2] (1° C.), 9.7 nm in data set [2] (25° C.) and 9.6 nm in data set [2] (40° C.). Further, the “Temperature at which formation of cubic liquid crystals was observed (° C.)” value in data set [2] (Table 12, 78.0% by mass, Ia3d) is 1 (Ia3d cubic liquid crystals) ° C. Besides, the “Krafft temperature (° C.)” value in data set [3] was 0 °C or lower. In addition, in data set [3] (listed as α-XP), the “TK (Krafft temperature)” value was ≤ 0 °C.

In the case of `CC(C)CCCC(C)CCCC(C)CCCC(C)CCCCOCC(CO)(CO)CO` (centres unmarked) [formula (8), mono-O-(5,9,13,17-tetramethyloctadecyl)pentaerythritol], in data set [2], the “liquid crystal phase formed” value is reported as “bicontinuous type II Pn3m cubic liquid crystals”. In addition, in data set [3], the “Krafft temperature (° C.)” value is 0 °C or lower and the “TK (Krafft temperature)” value is ≤ 0 °C.

For `CC(C)CCCC(C)CCCC(C)CCCC(C)CCCC(=O)OCC(CO)(CO)CO` (centres unmarked) [formula (9)], the “liquid crystal phase formed” value in data set [2] is given as “bicontinuous type II Pn3m cubic liquid crystals”. Moreover, in data set [3], the “Krafft temperature (° C.)” value was 0 °C or lower and the “TK (Krafft temperature)” value was ≤ 0 °C.

The record behind these values is patent US7846903B2, “Type II cubic liquid crystal composition” (National Institute of Advanced Industrial Science and …, priority 2004, dated 2010).
